{"source": "ChEMBL document CHEMBL4715821", "about": "“Discovery of 4-ethoxy-7H-pyrrolo[2,3-d]pyrimidin-2-amines as potent, selective and orally bioavailable LRRK2 inhibitors” (Bioorg Med Chem Lett, 2018)", "key": {"[1]": {"target": "SRSF protein kinase 3 (Homo sapiens) (UniProt Q9UPE1)", "sequence (Q9UPE1 whole entry)": "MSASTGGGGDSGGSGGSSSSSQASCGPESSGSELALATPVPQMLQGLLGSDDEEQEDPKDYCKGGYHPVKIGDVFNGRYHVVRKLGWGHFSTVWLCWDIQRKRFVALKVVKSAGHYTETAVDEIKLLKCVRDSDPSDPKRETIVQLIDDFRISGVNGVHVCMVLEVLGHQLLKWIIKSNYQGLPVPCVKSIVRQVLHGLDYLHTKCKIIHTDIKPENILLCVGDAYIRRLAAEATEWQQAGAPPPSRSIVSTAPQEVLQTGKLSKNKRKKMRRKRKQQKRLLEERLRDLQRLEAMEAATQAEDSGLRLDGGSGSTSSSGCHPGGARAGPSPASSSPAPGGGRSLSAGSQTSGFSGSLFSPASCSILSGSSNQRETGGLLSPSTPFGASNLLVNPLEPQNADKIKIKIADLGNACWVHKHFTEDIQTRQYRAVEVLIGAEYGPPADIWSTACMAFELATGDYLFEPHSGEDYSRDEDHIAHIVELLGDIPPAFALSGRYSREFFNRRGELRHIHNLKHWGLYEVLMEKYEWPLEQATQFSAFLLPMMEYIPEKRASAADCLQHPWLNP", "assay": "Inhibition of MSSK1 (unknown origin) assessed as residual activity at 1 uM by Kinomescan method relative to control"}, "[2]": {"target": "Tyrosine-protein kinase JAK2 (Homo sapiens) (UniProt O60674)", "sequence (O60674 whole entry, the tested form may be a part)": "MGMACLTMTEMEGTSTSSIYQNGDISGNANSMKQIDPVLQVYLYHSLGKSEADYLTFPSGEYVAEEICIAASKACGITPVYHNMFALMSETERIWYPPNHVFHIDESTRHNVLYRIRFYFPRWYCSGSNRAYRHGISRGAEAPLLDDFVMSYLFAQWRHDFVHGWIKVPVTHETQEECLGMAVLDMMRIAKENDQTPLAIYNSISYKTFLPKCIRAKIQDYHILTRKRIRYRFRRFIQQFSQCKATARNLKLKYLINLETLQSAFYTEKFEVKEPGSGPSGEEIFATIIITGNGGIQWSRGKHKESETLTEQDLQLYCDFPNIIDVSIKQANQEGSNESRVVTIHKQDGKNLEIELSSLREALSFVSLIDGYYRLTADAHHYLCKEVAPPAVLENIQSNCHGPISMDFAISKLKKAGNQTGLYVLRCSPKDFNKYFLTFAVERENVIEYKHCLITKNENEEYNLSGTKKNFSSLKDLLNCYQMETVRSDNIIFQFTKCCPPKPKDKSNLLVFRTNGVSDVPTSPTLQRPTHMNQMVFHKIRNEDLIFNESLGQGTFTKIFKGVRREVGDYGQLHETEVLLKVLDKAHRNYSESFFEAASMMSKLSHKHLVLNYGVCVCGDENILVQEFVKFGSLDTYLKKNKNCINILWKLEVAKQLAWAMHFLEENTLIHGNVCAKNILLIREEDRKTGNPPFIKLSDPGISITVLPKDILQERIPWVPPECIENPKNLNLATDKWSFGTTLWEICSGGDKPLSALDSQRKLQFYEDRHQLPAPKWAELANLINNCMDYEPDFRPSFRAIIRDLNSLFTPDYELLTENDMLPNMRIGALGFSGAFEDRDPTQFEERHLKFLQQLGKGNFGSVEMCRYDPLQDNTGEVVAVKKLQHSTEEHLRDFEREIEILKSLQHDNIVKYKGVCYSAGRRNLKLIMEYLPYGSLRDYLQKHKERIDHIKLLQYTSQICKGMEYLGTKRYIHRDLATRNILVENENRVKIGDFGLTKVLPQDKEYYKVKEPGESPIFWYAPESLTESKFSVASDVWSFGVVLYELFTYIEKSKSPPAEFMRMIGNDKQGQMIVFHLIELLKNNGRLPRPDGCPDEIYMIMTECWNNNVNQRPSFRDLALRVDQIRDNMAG", "assay": "Inhibition of wild-type human partial length JAK2 JH1 catalytic domain (A829 to G1132 residues) expressed in mammalian expression system assessed as residual activity at 1 uM by Kinomescan method relative to control"}, "[3]": {"target": "CDK2/Cyclin A2 (Homo sapiens) (UniProt P24941+P20248)", "assay": "Inhibition of wild-type human full length CDK2 (M1 to L298 residues)/Cyclin A expressed in bacterial expression system assessed as residual activity at 1 uM by Kinomescan method relative to control"}, "[4]": {"target": "Serine/threonine-protein kinase 26 (Homo sapiens) (UniProt Q9P289)", "assay": "Inhibition of wild-type human full length MST4 (M1 to P416 residues) expressed in mammalian expression system assessed as residual activity at 1 uM by Kinomescan method relative to control"}, "[5]": {"target": "Mitogen-activated protein kinase kinase kinase 7 (Homo sapiens) (UniProt O43318)", "sequence (O43318 whole entry, the tested form may be a part)": "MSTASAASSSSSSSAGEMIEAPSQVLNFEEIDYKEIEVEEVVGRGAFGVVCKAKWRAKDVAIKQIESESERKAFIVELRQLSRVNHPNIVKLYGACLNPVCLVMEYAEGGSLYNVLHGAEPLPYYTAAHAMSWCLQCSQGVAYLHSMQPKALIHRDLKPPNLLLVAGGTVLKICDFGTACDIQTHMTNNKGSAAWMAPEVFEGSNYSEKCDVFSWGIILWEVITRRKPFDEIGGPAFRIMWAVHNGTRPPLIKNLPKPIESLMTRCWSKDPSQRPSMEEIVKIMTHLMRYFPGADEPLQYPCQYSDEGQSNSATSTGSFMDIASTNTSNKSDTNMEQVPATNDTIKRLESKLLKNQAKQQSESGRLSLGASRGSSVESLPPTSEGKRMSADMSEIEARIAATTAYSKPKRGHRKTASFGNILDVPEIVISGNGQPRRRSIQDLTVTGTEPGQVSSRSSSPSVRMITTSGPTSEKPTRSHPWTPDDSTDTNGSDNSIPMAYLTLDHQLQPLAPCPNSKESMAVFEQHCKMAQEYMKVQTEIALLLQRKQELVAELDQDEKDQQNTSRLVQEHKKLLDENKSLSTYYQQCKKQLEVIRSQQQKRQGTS", "assay": "Inhibition of wild-type human partial length TAK1 (M1 to Q303 residues) expressed in mammalian expression system assessed as residual activity at 1 uM by Kinomescan method relative to control"}, "[6]": {"target": "CDK2/Cyclin A1 (Homo sapiens) (UniProt P24941+P78396)", "assay": "Inhibition of CDK2/Cyclin A1 (unknown origin) assessed as residual activity at 1 uM by Kinomescan method relative to control", "type": "protein-complex assay"}, "[7]": {"target": "Platelet-derived growth factor receptor beta (Homo sapiens) (UniProt P09619)", "assay": "Inhibition of wild-type human partial length PDGFRB (V582 to Y1009 residues) expressed in bacterial expression system assessed as residual activity at 1 uM by Kinomescan method relative to control"}, "[8]": {"target": "Cyclin-Y/Cyclin-dependent kinase 16 (Homo sapiens) (UniProt Q00536+Q8ND76)", "assay": "Inhibition of CDK16/Cyclin Y (unknown origin) assessed as residual activity at 1 uM by Kinomescan method relative to control", "type": "protein-complex assay"}, "[9]": {"target": "NUAK family SNF1-like kinase 1 (Homo sapiens) (UniProt O60285)", "assay": "Inhibition of wild-type human partial length ARK5 (E25 to I332 residues) expressed in bacterial expression system assessed as residual activity at 1 uM by Kinomescan method relative to control"}, "[10]": {"target": "Ephrin type-A receptor 4 (Homo sapiens) (UniProt P54764)", "assay": "Inhibition of wild-type human partial length EPHA4 (T601 to R897 residues) expressed in bacterial expression system assessed as residual activity at 1 uM by Kinomescan method relative to control"}, "[11]": {"target": "Serine/threonine-protein kinase PAK 6 (Homo sapiens) (UniProt Q9NQU5)", "assay": "Inhibition of wild-type human partial length PAK6 (N298 to C681 residues) expressed in bacterial expression system assessed as residual activity at 1 uM by Kinomescan method relative to control"}, "[12]": {"target": "Serine/threonine-protein kinase N1 (Homo sapiens) (UniProt Q16512)", "assay": "Inhibition of wild-type human partial length PKN1 (E598 to C948 residues) expressed in bacterial expression system assessed as residual activity at 1 uM by Kinomescan method relative to control"}, "[13]": {"target": "Serine/threonine-protein kinase PAK 5 (Homo sapiens) (UniProt Q9P286)", "assay": "Inhibition of PAK5 (unknown origin) assessed as residual activity at 1 uM by Kinomescan method relative to control"}, "[14]": {"target": "Tyrosine-protein kinase CSK (Homo sapiens) (UniProt P41240)", "sequence (P41240 2-450 limits assumed)": "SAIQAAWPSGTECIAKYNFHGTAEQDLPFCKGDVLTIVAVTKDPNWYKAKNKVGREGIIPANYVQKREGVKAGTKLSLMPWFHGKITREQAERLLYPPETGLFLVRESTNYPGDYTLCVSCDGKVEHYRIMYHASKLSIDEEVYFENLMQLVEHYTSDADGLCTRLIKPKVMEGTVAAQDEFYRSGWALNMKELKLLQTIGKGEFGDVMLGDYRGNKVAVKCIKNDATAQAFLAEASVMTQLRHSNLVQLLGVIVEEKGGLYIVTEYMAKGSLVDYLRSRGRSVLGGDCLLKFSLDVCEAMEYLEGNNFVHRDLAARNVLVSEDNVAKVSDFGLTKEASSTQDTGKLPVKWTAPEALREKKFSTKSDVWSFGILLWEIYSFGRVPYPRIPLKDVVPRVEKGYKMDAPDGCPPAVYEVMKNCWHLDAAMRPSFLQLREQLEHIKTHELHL", "assay": "Inhibition of wild-type human full length CSK (M1 to L450 residues) expressed in bacterial expression system assessed as residual activity at 1 uM by Kinomescan method relative to control"}, "[15]": {"assay": "In vivo inhibition of LRRK2 in C57BL6 mouse assessed as reduction in Ser935 phosphorylation in lung at 45 mg/kg, po after 1 hr by Western blot analysis", "type": "functional", "design": "scale not given: the % may be the effect or the level left"}, "[16]": {"target": "Tyrosine-protein kinase receptor TYRO3 (Homo sapiens) (UniProt Q06418)", "sequence (Q06418 whole entry, the tested form may be a part)": "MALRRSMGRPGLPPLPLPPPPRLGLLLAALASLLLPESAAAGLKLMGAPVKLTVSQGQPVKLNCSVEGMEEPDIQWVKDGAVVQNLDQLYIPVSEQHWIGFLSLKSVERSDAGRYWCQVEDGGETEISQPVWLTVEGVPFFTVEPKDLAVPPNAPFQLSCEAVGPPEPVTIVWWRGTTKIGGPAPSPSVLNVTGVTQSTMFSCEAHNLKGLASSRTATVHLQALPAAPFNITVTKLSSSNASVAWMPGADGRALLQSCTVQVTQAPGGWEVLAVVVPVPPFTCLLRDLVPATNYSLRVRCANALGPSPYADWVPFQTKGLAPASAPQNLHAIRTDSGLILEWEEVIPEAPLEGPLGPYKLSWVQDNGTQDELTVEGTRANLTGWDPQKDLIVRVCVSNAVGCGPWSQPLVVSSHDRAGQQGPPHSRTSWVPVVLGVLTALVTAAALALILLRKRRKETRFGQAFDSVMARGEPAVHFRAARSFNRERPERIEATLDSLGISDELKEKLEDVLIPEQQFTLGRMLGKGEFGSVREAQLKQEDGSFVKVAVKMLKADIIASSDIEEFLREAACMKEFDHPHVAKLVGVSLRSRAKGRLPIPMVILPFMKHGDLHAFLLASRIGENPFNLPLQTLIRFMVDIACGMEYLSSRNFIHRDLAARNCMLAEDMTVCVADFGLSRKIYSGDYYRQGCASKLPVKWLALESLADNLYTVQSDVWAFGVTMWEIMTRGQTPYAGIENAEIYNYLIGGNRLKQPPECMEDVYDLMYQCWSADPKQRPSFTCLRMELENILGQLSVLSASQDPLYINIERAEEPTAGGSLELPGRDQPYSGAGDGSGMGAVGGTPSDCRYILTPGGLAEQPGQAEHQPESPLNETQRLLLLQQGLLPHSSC", "assay": "Inhibition of wild-type human partial length TYRO3 (S497 to T814 residues) expressed in bacterial expression system assessed as residual activity at 1 uM by Kinomescan method relative to control"}, "[17]": {"target": "Casein kinase I isoform gamma-3 (Homo sapiens) (UniProt Q9Y6M4)", "assay": "Inhibition of CK1g3 (unknown origin) assessed as residual activity at 1 uM by Kinomescan method relative to control"}, "[18]": {"assay": "Unbound fraction in mouse blood", "type": "ADME, tissue-based"}, "[19]": {"target": "cGMP-dependent protein kinase 1 (Homo sapiens) (UniProt Q13976)", "assay": "Inhibition of PKG1a (unknown origin) assessed as residual activity at 1 uM by Kinomescan method relative to control"}, "[20]": {"target": "Protein-tyrosine kinase 2-beta (Homo sapiens) (UniProt Q14289)", "assay": "Inhibition of wild-type human full length PYK2 (M1 to E967 residues) expressed in bacterial expression system assessed as residual activity at 1 uM by Kinomescan method relative to control"}, "[21]": {"target": "Fibroblast growth factor receptor 2 (Homo sapiens) (UniProt P21802)", "sequence (P21802 22-821 limits assumed)": "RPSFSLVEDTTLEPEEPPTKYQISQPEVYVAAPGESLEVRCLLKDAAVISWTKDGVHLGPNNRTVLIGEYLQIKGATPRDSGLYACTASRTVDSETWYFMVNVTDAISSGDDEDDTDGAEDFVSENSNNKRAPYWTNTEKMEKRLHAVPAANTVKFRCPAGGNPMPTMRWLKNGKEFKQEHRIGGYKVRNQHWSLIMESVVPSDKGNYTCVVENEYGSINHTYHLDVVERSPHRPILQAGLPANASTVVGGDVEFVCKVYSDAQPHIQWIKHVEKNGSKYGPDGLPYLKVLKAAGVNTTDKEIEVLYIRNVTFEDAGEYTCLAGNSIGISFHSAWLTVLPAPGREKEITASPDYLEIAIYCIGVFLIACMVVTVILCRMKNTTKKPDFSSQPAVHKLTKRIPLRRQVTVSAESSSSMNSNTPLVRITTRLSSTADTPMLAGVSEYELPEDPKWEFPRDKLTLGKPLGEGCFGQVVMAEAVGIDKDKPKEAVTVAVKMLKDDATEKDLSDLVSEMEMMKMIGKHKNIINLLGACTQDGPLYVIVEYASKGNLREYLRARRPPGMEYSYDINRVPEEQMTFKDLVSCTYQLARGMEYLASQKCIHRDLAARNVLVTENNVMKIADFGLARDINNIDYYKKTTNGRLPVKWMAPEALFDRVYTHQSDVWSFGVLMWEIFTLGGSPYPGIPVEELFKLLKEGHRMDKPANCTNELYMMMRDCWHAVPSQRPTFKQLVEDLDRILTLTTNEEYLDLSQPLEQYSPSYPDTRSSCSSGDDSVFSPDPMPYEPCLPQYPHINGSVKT", "assay": "Inhibition of wild type human partial length FGFR2 (D457 to E769 residues) expressed in bacterial expression system assessed as residual activity at 1 uM by Kinomescan method relative to control"}, "[22]": {"target": "Serine/threonine-protein kinase LATS2 (Homo sapiens) (UniProt Q9NRM7)", "assay": "Inhibition of wild-type human partial length LATS2 (Q641 to V1088 residues) expressed in mammalian expression system assessed as residual activity at 1 uM by Kinomescan method relative to control"}, "[23]": {"target": "Glycogen synthase kinase-3 beta (Homo sapiens) (UniProt P49841)", "assay": "Inhibition of wild-type human full length GSK3B (M1 to T433 residues) expressed in mammalian expression system assessed as residual activity at 1 uM by Kinomescan method relative to control"}, "[24]": {"target": "LIM domain kinase 1 (Homo sapiens) (UniProt P53667)", "assay": "Inhibition of wild-type human full length LIMK1 (M1 to D647 residues) expressed in bacterial expression system assessed as residual activity at 1 uM by Kinomescan method relative to control"}, "[25]": {"assay": "Permeability ratio across apical side to basolateral side in MDCK2 cells transfected with Bacmam virus containing human BCRP at 3 uM after 90 mins in presence or absence of GF120918 by transwell assay", "type": "ADME, cell-based, Canis lupus familiaris", "conditions": "dog, mdck-ii, 1.5 h"}, "[26]": {"target": "Serine/threonine-protein kinase PAK 4 (Homo sapiens) (UniProt O96013)", "sequence (O96013 whole entry, looked up, the tested form may be a part)": "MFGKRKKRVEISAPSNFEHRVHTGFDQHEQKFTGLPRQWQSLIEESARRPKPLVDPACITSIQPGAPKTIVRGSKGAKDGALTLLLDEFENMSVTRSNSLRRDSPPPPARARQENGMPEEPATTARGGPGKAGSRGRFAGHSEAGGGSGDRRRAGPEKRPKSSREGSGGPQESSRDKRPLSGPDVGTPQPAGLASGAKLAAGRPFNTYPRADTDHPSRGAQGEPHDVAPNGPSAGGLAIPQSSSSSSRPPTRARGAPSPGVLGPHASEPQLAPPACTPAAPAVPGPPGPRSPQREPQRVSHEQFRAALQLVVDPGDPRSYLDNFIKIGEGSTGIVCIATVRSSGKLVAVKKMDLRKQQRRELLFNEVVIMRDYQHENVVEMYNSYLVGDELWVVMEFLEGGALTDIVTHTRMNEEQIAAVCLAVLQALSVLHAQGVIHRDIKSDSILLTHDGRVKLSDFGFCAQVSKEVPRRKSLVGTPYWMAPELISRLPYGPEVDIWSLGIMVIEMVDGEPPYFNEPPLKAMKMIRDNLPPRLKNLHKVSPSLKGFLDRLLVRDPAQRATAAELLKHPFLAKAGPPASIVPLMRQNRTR", "assay": "Inhibition of wild-type human partial length PAK4 (Q144 to R438 residues) expressed in bacterial expression system assessed as residual activity at 1 uM by Kinomescan method relative to control"}, "[27]": {"target": "Mitogen-activated protein kinase 9 (Homo sapiens) (UniProt P45984)", "assay": "Inhibition of wild-type human full length JNK2 (M1 to Q382 residues) expressed in mammalian expression system assessed as residual activity at 1 uM by Kinomescan method relative to control"}}}
{"compound": "CCOc1nc(Nc2ccc(C(=O)N3CCOCC3)cc2OC)nc2[nH]ccc12", "values": [{"measurement": "Activity", "setting": "[1]", "result": 78.1, "unit": "%"}, {"measurement": "Activity", "setting": "[2]", "result": 96.3, "unit": "%"}, {"measurement": "Activity", "setting": "[3]", "result": 94.9, "unit": "%"}, {"measurement": "Activity", "setting": "[4]", "result": 88.4, "unit": "%"}, {"measurement": "Activity", "setting": "[5]", "result": 87.5, "unit": "%"}, {"measurement": "Activity", "setting": "[6]", "result": 74, "unit": "%"}, {"measurement": "Activity", "setting": "[7]", "result": 90.9, "unit": "%"}, {"measurement": "Activity", "setting": "[8]", "result": 105, "unit": "%"}, {"measurement": "Activity", "setting": "[9]", "result": 47.6, "unit": "%"}, {"measurement": "Activity", "setting": "[10]", "result": 107, "unit": "%"}, {"measurement": "Activity", "setting": "[11]", "result": 99.2, "unit": "%"}, {"measurement": "Activity", "setting": "[12]", "result": 94.8, "unit": "%"}, {"measurement": "Activity", "setting": "[13]", "result": 105, "unit": "%"}, {"measurement": "Activity", "setting": "[14]", "result": 104, "unit": "%"}, {"measurement": "Activity", "setting": "[15]", "result": 80, "unit": "%"}, {"measurement": "Activity", "setting": "[16]", "result": 109, "unit": "%"}, {"measurement": "Activity", "setting": "[17]", "result": 92.3, "unit": "%"}, {"measurement": "fraction unbound", "setting": "[18]", "result": 0.031}, {"measurement": "Activity", "setting": "[19]", "result": 92.5, "unit": "%"}, {"measurement": "Activity", "setting": "[20]", "result": 36.1, "unit": "%"}, {"measurement": "Activity", "setting": "[21]", "result": 111, "unit": "%"}, {"measurement": "Activity", "setting": "[22]", "result": 96.3, "unit": "%"}, {"measurement": "Activity", "setting": "[23]", "result": 95.9, "unit": "%"}, {"measurement": "Activity", "setting": "[24]", "result": 98, "unit": "%"}, {"measurement": "Ratio", "setting": "[25]", "result": 3.1}, {"measurement": "Activity", "setting": "[26]", "result": 99, "unit": "%"}, {"measurement": "Activity", "setting": "[27]", "result": 43.1, "unit": "%"}]}
